Reference: patent US20220033397A1, “PHARMACEUTICAL COMPOUNDS AND THEIR USE AS INHIBITORS OF UBIQUITIN SPECIFIC PROTEASE 19 (USP19)” (ALMAC DISCOVERY LIMITED, priority 2018, published 2022)

Each compound was assayed against T1, Full-length USP19 (Homo sapiens, UniProt O94966) (assay: USP19 fluorescence polarisation (FP) homogeneous assay with Ubiquitin-Lys-TAMRA substrate). Conditions: 2.5 nM USP19, 30 min pre-incubation, average of at least two duplicate experiments.
T1 construct: Full-length USP19 was purchased from Boston Biochem (E-576); purchased Boston Biochem E-576
T1 sequence (O94966 1-1318): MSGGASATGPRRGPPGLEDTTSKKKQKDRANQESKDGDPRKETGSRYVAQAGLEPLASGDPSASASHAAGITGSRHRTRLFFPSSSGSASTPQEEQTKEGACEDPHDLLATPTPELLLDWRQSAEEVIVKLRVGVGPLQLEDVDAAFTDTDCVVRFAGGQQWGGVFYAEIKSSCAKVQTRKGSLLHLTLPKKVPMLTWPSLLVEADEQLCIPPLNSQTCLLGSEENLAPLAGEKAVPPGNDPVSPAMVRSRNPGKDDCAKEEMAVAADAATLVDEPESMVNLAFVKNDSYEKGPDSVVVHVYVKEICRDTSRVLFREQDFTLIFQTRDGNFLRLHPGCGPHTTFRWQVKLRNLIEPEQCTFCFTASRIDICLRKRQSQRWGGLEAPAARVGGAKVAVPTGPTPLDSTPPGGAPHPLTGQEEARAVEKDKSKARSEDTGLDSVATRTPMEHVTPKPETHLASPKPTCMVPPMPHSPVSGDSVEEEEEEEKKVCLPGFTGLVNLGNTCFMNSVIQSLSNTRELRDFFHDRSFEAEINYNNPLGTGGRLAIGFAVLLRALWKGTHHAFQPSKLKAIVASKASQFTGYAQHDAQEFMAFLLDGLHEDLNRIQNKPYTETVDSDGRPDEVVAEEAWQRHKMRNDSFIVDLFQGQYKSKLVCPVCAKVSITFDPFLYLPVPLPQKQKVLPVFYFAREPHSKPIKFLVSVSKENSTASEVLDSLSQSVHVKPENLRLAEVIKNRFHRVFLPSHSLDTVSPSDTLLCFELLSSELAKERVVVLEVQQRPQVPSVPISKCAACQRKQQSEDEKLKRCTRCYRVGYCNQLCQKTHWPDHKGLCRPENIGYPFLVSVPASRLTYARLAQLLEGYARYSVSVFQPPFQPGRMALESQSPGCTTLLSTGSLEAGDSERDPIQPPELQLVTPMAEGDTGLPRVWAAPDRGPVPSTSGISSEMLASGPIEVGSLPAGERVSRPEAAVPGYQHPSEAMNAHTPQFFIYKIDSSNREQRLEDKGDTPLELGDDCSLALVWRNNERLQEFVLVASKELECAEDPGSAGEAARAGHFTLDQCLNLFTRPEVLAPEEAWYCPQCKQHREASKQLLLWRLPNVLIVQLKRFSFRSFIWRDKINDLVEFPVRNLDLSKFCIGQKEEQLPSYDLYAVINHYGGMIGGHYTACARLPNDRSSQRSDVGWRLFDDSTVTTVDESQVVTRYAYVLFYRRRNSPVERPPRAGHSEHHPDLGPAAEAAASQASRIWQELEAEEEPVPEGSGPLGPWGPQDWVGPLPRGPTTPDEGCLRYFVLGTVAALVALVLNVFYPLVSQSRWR
Type: biochemical
Protocol: Unless otherwise stated, all other reagents were purchased from Sigma. Enzymatic reactions were conducted in black flat bottom polystyrene 384-well plates (Nunc) and 30 μL total volume. […] Inhibitors were stored as 10 mM DMSO stocks in an inert environment (low humidity, dark, low oxygen, room temperature) using the Storage Pod System and serial dilutions were prepared in buffer just prior to the assay (from 200 μM to 2 μM, 8-18 data point curve).
Following incubation at RT for 30 min, the enzymatic reactions were initiated by dispensing the Ub substrate (500 nM, 10 μL). FP was measured every 15 min over a period of 90 min (within the linear range of the assay) using a Synergy 4 plate reader (BioTek) exciting at 530 nm and measuring the amount of parallel and perpendicular light at 575 nm. The FP signal was subsequently normalised to the no compound control.

| IC50 [µM] | Structure (SMILES) |
| --- | --- |
| 0.5 to 5 | COc1cc2ncn(CC3(O)CCN(C(=O)[C@H](C)CC4CCCCC4)CC34CCCC4)c(=O)c2cc1OC (stereo partly drawn) [Example 52, 3-((7-((R)-3-Cyclohexyl-2-methylpropanoyl)-10-hydroxy-7-azaspiro[4.5]decan-10-yl)methyl)-6,7-dimethoxyquinazolin-4(3H)-one] |
| 5 to 50 | C[C@H](CC1CCCCC1)C(=O)N1CCC(O)(Cn2cnc3[nH]ccc3c2=O)C2(CCCC2)C1 (stereo partly drawn) [Example 53, 3-((7-((R)-3-Cyclohexyl-2-methylpropanoyl)-10-hydroxy-7-azaspiro[4.5]decan-10-yl)methyl)-3,7-dihydro-4H-pyrrolo[2,3-d]pyrimidin-4-one] |
| < 0.5 | CSc1ncc2c(=O)n(CC3(O)CCN(C(=O)[C@H](C)CC4CCCCC4)CC34CCCC4)n(C)c2n1 (stereo partly drawn) [Example 54, 2-((7-((R)-3-Cyclohexyl-2-methylpropanoyl)-10-hydroxy-7-azaspiro[4.5]decan-10-yl)methyl)-1-methyl-6-(methylthio)-1,2-dihydro-3H-pyrazolo[3,4-d]pyrimidin-3-one] |
| < 0.5 | CSc1ncc2c(=O)n(CC3(O)CCN(C(=O)[C@H](C)CC4CCCCC4)CC34CCCC4)ccc2n1 (stereo partly drawn) [Example 55, 6-((7-((R)-3-Cyclohexyl-2-methylpropanoyl)-10-hydroxy-7-azaspiro[4.5]decan-10-yl)methyl)-2-(methylthio)pyrido[4,3-d]pyrimidin-5(6H)-one] |
| < 0.5 | CSc1ncc2c(=O)n(CC3(O)CCN(C(=O)[C@H](C)CC(F)(F)F)CC34CCCC4)ccc2n1 (stereo partly drawn) [Example 56, 6-((10-Hydroxy-7-((R)-4,4,4-trifluoro-2-methylbutanoyl)-7-azaspiro[4.5]decan-10-yl)methyl)-2-(methylthio)pyrido[4,3-d]pyrimidin-5(6H)-one] |
| 0.5 to 5 | CNc1ncc2c(=O)n(CC3(O)CCN(C(=O)[C@H](C)CC(F)(F)F)CC34CCCC4)ccc2n1 (stereo partly drawn) [Example 57, 6-((10-Hydroxy-7-((R)-4,4,4-trifluoro-2-methylbutanoyl)-7-azaspiro[4.5]decan-10-yl)methyl)-2-(methylamino)pyrido[4,3-d]pyrimidin-5(6H)-one] |
| 0.5 to 5 | C[C@H](CC(F)(F)F)C(=O)N1CCC(O)(Cn2ccc3nc(N(C)C)ncc3c2=O)C2(CCCC2)C1 (stereo partly drawn) [Example 58, 2-(Dimethylamino)-6-((10-hydroxy-7-((R)-4,4,4-trifluoro-2-methylbutanoyl)-7-azaspiro[4.5]decan-10-yl)methyl)pyrido[4,3-d]pyrimidin-5(6H)-one] |
| 5 to 50 | COc1ncc2c(=O)n(CC3(O)CCN(C(=O)[C@H](C)CC(F)(F)F)CC34CCCC4)ccc2n1 (stereo partly drawn) [Example 59, 6-((10-Hydroxy-7-((R)-4,4,4-trifluoro-2-methylbutanoyl)-7-azaspiro[4.5]decan-10-yl)methyl)-2-methoxypyrido[4,3-d]pyrimidin-5(6H)-one] |
| 0.5 to 5 | C[C@H](CC(F)(F)F)C(=O)N1CCC(O)(Cn2ccc3nc(N4CCOCC4)ncc3c2=O)C2(CCCC2)C1 (stereo partly drawn) [Example 60, 6-((10-Hydroxy-7-((R)-4,4,4-trifluoro-2-methylbutanoyl)-7-azaspiro[4.5]decan-10-yl)methyl)-2-morpholinopyrido[4,3-d]pyrimidin-5(6H)-one] |
| 0.5 to 5 | C[C@H](CC(F)(F)F)C(=O)N1CCC(O)(Cn2ccc3nc(N4CCN(C)CC4)ncc3c2=O)C2(CCCC2)C1 (stereo partly drawn) [Example 61, 6-((10-Hydroxy-7-((R)-4,4,4-trifluoro-2-methylbutanoyl)-7-azaspiro[4.5]decan-10-yl)methyl)-2-(4-methylpiperazin-1-yl)pyrido[4,3-d]pyrimidin-5(6H)-one] |
| 0.5 to 5 | C[C@H](CC(F)(F)F)C(=O)N1CCC(O)(Cn2ccc3nc(N=S(C)(C)=O)ncc3c2=O)C2(CCCC2)C1 (stereo partly drawn) [Example 62, 2-((Dimethyl(oxo)-λ^6-sulfaneylidene)amino)-6-((10-hydroxy-7-((R)-4,4,4-trifluoro-2-methylbutanoyl)-7-azaspiro[4.5]decan-10-yl)methyl)pyrido[4,3-d]pyrimidin-5(6H)-one] |
| 0.5 to 5 | C[C@H](CC(F)(F)F)C(=O)N1CCC(O)(Cn2ccc3nc(N4CCNCC4)ncc3c2=O)C2(CCCC2)C1 (stereo partly drawn) [Example 63, 6-((10-Hydroxy-7-((R)-4,4,4-trifluoro-2-methylbutanoyl)-7-azaspiro[4.5]decan-10-yl)methyl)-2-(piperazin-1-yl)pyrido[4,3-d]pyrimidin-5(6H)-one] |
| 0.5 to 5 | CSc1ncc2c(=O)n(CC3(O)CCN(C(=O)[C@H](C)CC(F)(F)F)CC34CCCC4)n(C)c2n1 (stereo partly drawn) [Example 64, 2-((10-Hydroxy-7-((R)-4,4,4-trifluoro-2-methylbutanoyl)-7-azaspiro[4.5]decan-10-yl)methyl)-1-methyl-6-(methylthio)-1,2-dihydro-3H-pyrazolo[3,4-d]pyrimidin-3-one] |
| 0.5 to 5 | C[C@H](CC1CCCCC1)C(=O)N1CCC(O)(Cn2cc(S(C)(=N)=O)c(Cl)cc2=O)C(C)(C)C1 (stereo partly drawn) [Example 67, 4-Chloro-1-((1-((R)-3-cyclohexyl-2-methylpropanoyl)-4-hydroxy-3,3-dimethylpiperidin-4-yl)methyl)-5-(S-methylsulfonimidoyl)pyridin-2(1H)-one] |
| 0.5 to 5 | C[C@H](CC1CCCCC1)C(=O)N1CCC(O)(Cn2cc(S(C)(=N)=O)c(-c3ccccc3)cc2=O)C(C)(C)C1 (stereo partly drawn) [Example 68, 1-((1-((R)-3-Cyclohexyl-2-methylpropanoyl)-4-hydroxy-3,3-dimethylpiperidin-4-yl)methyl)-5-(S-methylsulfonimidoyl)-4-phenylpyridin-2(1H)-one] |
| 0.5 to 5 | C[C@H](CC1CCCCC1)C(=O)N1CCC(O)(Cn2cc(N=S(C)(C)=O)c(Cl)cc2=O)C2(CCCC2)C1 (stereo partly drawn) [Example 69, 4-Chloro-1-((7-((R)-3-cyclohexyl-2-methylpropanoyl)-10-hydroxy-7-azaspiro[4.5]decan-10-yl)methyl)-5-((dimethyl(oxo)-λ^6-sulfaneylidene)amino)pyridin-2(1H)-one] |
| < 0.5 | C[C@H](CC1CCCCC1)C(=O)N1CCC(O)(Cn2cc([S+](C)[O-])c(Cl)cc2=O)C2(CCCC2)C1 (stereo partly drawn) [Example 70, 4-Chloro-1-((7-((R)-3-cyclohexyl-2-methylpropanoyl)-10-hydroxy-7-azaspiro[4.5]decan-10-yl)methyl)-5-(methylsulfinyl)pyridin-2(1H)-one] |
| < 0.5 | C[C@H](CC1CCCCC1)C(=O)N1CCC(O)(Cn2cc(S(C)(=N)=O)c(Cl)cc2=O)C2(CCCC2)C1 (stereo partly drawn) [Example 71, 4-Chloro-1-((7-((R)-3-cyclohexyl-2-methylpropanoyl)-10-hydroxy-7-azaspiro[4.5]decan-10-yl)methyl)-5-(S-methylsulfonimidoyl)pyridin-2(1H)-one] |
| < 0.5 | C[C@H](CC1CCCCC1)C(=O)N1CCC(O)(Cn2cc(N=S(C)(C)=O)c(-c3ccccc3)cc2=O)C2(CCCC2)C1 (stereo partly drawn) [Example 72, 1-((7-((R)-3-Cyclohexyl-2-methylpropanoyl)-10-hydroxy-7-azaspiro[4.5]decan-10-yl)methyl)-5-((dimethyl(oxo)-λ^6-sulfaneylidene)amino)-4-phenylpyridin-2(1H)-one] |
| 0.5 to 5 | C[C@H](CC1CCCCC1)C(=O)N1CCC(O)(Cn2cc(-c3ccccc3)c(N=S(C)(C)=O)cc2=O)C2(CCCC2)C1 (stereo partly drawn) [Example 73, 1-((7-((R)-3-Cyclohexyl-2-methylpropanoyl)-10-hydroxy-7-azaspiro[4.5]decan-10-yl)methyl)-4-((dimethyl(oxo)-λ^6-sulfaneylidene)amino)-5-phenylpyridin-2(1H)-one] |
